According to article PMC6838110 (Nature Communications, 2019):

Legend:
[1] = system: A549 cells; test: Colony formation assay with ionizing radiation; assay type: cell-based, human
Method: (§1) page 32: […] Plates were then washed 2x with PBS, incubated with 20 µL of antibody solution containing […] incubated at RT for 2 hours. Plates were washed 3x with PBS before imaging on the CV7000 high-content imaging platform (Yokogawa). Following image acquisition, images were exported to the ColumbusTM image data storage and analysis system (Perkin Elmer). Optimized image algorithms were used to evaluate phenotypic response s using nuclear staining with Hoechst (cell cycle, micronuclei, nuclear fragmentation ), as well as to quantify the response of DNA damage response markers (foci numbers and total signal […] SDS-PAGE and Western blotting of samples Protein lysates were generated by scraping cells in radioimmunoprecipitation assay […] and protease and phosphatase inhibitor tablets (Roche) following compound treatments at indicated time points. Protein concentration was determined using the BCA protein assay kit (ThermoFisher). Proteins were separated by SDS -PAGE on NuPAGE® 4-12% […] membranes using the iBlot ® dry blotting system (ThermoFisher). Membranes were […] and incubated with primary antibody overnight at 4°C. Membranes were then washed with TBS-T and incubated with HRP-conjugated anti-rabbit or anti-mouse antibodies for 1 hour at RT. Proteins were detected by incubating membranes with SuperSignalTM Dura extended-duration substrate (ThermoFisher) and visualiz ed using the G:BOX ChemiGenius imaging system (Syngene). Band intensities were quantified using Syngene Genetools software. For analysis o f in vivo samples, a two-sided t-test was performed on logged data assuming unequal variance. A list of all antibodies used in this study can be found in Supplementary Table 5. Colony formation assay Cells were plated at low density into six-well plates in 3 mL medium (500 cells for A549, NCI-H1299 and FaDu WT, 4000 cells for FaDu ATM […]) and incubated overnight. Cell plating numbers were adjusted for higher IR doses to compensate for cell kill. […] Cell colonies were washed with […] acetic acid for >10 minutes. Excess stain was removed by washing with water. Surviving colonies (>50 cells) were counted using the GelCountTM colony counter (Oxford Optronix). Mean surviving colonies were calculated from three technical replicates. […] fraction. […] 33

[2] = system: NCI-H1299 cells; test: Colony formation assay with ionizing radiation; assay type: cell-based, human; settings: for DEF37 Mean / DEF37 n1 / DEF37 n2: NCI-H1299
Method: as §1

[3] = system: BT474 breast cancer xenografts; test: Xenograft efficacy study with liposomal doxorubicin; assay type: in vivo, mice; settings: AZD7648 37.5 mg kg−1 bid × 28 days, single agent
Method: Immunocompromised SCID (C.B-17/IcrHan®Hsd-Prkdc^scid) or Hsd:Athymic Nude-Foxn1^nu female mice (Envigo) were used for tumour implantation. […] When dosed twice daily, the time between the morning and evening doses was 8 h. Targeted irradiation of 2 Gy was delivered over 2 min daily over the first 5 days of treatment. Liposomal doxorubicin (Doxoves) was diluted in physiological saline and intravenously dosed at 2.5 or 5 mg kg^−1 once per week. Olaparib was formulated in 10% DMSO/30% Kleptose and orally dosed at 100 mg kg^−1 once daily. […] Statistical significance was evaluated using a one-tailed t-test. All in vivo studies complied with all relevant ethical regulations for animal testing and research, followed AstraZeneca’s global bioethics policy and received ethical approval from the AstraZeneca ethical committee. HBCx-17 PDX study was carried out at XenTech, France in accordance with French regulatory legislation concerning the protection of laboratory animals. CTG-703, CTG-0828 and CTG-0149 PDX studies were carried out at Champions Oncology, Inc., USA in accordance to the guidelines of the Institutional Animal Care and Use Committee (IACUC) of Champions Oncology and the USA regulatory legislation. […]
Tumours were measured (length x width) by bilateral Vernier calliper measurements and tumour volume calculated using Mousetrap software. […]

[4] = system: FaDu and A549 ATM KO cells; test: Live/Dead assay, AZD7648 monotherapy, ATM KO versus WT isogenic pairs; assay type: cell-based, human; settings: AZD7648 single agent
From the text: by Live/Dead assay in A) UWB1.289 and UWB1.289 complemented with wild-type BRCA1 (UWB1.289 + BRCA1), DLD1 and DLD1 with the BRCA2 gene knocked out (DLD1 BRCA2 KO), and B) FaDu and A549 cells with the ATM gene knocked out (ATM KO) compared with their WT counterpart. Graphs represent percentage viable cells ± SD following 7 days’ treatment relative to DMSO vehicle-treated controls from one representative experiment of at least three independent experiments. Tables describe […]
and A549 ATM KO cells compared with their WT counterparts following 7 days’ treatment.
Mean pGI50 (–log [GI50]) ± SEM, geometric mean GI50, number of experimental repeats (n) and 95% confidence interval are described. C) Colony formation assay was performed on FaDu and A549 ATM KO and WT cells treated with increasing concentrations of olaparib. Graphs represent percentage surviving fraction of colonies ± SD following 10– 14 days’ treatment relative to DMSO vehicle-treated control from one representative experiment of three independent experiments. […] Mean pIC50
± SEM, geometric mean IC50, number of experimental repeats (n) and 95% confidence […]
8–14 days or with increasing concentrations of olaparib. Cell colonies were washed with […]
Mean surviving colonies were calculated from three technical replicates. […]
before survival fraction was calculated. […]
and quantified using the Acumen ® Cellista (TTP Labtech). […]

[5] = system: FaDu ATM KO xenograft model; test: Pharmacodynamic biomarkers by western blot; assay type: in vivo, mice; settings: 30 min after 75 mg kg−1 dose of AZD7648
From the text: (1 picture or pasted object on this page, not shown here)
treatment groups when mean tumour volume reached ~0.2 cm 3.

Cc1cc2ncnn2cc1Nc1ncc2c(n1)n(C1CCOCC1)c(=O)n2C [AZD7648]
DEF37 Mean ([1]; AZD7648 0.025 μM + IR): 1.2 | DEF37 n1 ([1]; AZD7648 0.025 μM + IR): 1.3 | DEF37 n2 ([1]; AZD7648 0.025 μM + IR): 1.2 | DEF37 Mean ([1]; AZD7648 0.1 μM + IR): 1.7 | DEF37 n1 ([1]; AZD7648 0.1 μM + IR): 1.4 | DEF37 n2 ([1]; AZD7648 0.1 μM + IR): 1.9 | Mean DEF37 ([1]; AZD7648 1 μM + IR (Fig. 1e)): 5.1 | DEF37 Mean ([1]; AZD7648 1.21 μM + IR): 5.1 | DEF37 n1 ([1]; AZD7648 1.21 μM + IR): 3.2 | DEF37 n2 ([1]; AZD7648 1.21 μM + IR): 7.0 | Mean DEF37 ([2]; H1299, AZD7648 1 μM + IR (Fig. 1e)): 7.4 | DEF37 Mean ([2]; AZD7648 0.025 μM + IR): 1.3 | DEF37 n1 ([2]; AZD7648 0.025 μM + IR): 1.2 | DEF37 n2 ([2]; AZD7648 0.025 μM + IR): 1.3 | DEF37 Mean ([2]; AZD7648 0.1 μM + IR): 2.5 | DEF37 n1 ([2]; AZD7648 0.1 μM + IR): 2.9 | DEF37 Mean ([2]; AZD7648 1.21 μM + IR): 7.4 | DEF37 n1 ([2]; AZD7648 1.21 μM + IR): 7.9 | DEF37 n2 ([2]; AZD7648 1.21 μM + IR): 7.0 | TGI [3]: 20% | greater sensitivity of ATM KO cells compared with isogenic WT cells [4]: > 10 fold | reduction of pDNA-PKcs Ser2056, γH2AX and pRPA32 Ser4/Ser8 [5]: ~ 80%
